PubChem BioAssay AID248 (DTP/NCI, 2004)
Values joined by “and” are separate entries in the source; they are usually repeats but may differ in a detail not shown here. Equal values may be shown once. Inconclusive results and toxic doses are left out. Rule as the data show it: active = T/C of 150% or more; inactive = T/C below 125%.

Tested on: L1210 leukemia ip in BDF1 mice, survival T/C
Assay: NCI In Vivo Anticancer Drug Screen. Data for tumor model L1210 Leukemia (intraperitoneal) in B6D2F1 (BDF1) mice
Conditions: endpoint: mean survival time, higher = longer survival
In short: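 Antitumor effect is assessed in tumor-bearing animals. Survival in the compound arm is compared with a vehicle-dosed control arm and expressed as their quotient.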

[1] = dose: 50.0 mg/kg/injection, schedule: Q01DX001 (ip), vehicle: saline
[2] = dose: 100.0 mg/kg/injection, schedule: Q01DX001 (ip), vehicle: saline
[3] = dose: 200.0 mg/kg/injection, schedule: Q01DX001 (ip), vehicle: saline
[4] = dose: 400.0 mg/kg/injection, schedule: Q01DX001 (ip), vehicle: saline
[5] = dose: 25.0 mg/kg/injection, schedule: Q01DX009 (ip), vehicle: Klucel (hydroxypropylcellulose) (HPC)
[6] = dose: 100.0 mg/kg/injection, schedule: Q01DX009 (ip), vehicle: Klucel (hydroxypropylcellulose) (HPC)
[7] = dose: 100.0 mg/kg/injection, schedule: Q01DX009 (ip), vehicle: saline with Tween-80
[8] = dose: 200.0 mg/kg/injection, schedule: Q01DX009 (ip), vehicle: saline with Tween-80
[9] = dose: 400.0 mg/kg/injection, schedule: Q01DX009 (ip), vehicle: saline with Tween-80
[10] = dose: 50.0 mg/kg/injection, schedule: Q01DX009 (ip), vehicle: saline with Tween-80
[11] = dose: 100.0 mg/kg/injection, schedule: Q04DX003 (ip), vehicle: Klucel (hydroxypropylcellulose) (HPC)
[12] = dose: 200.0 mg/kg/injection, schedule: Q04DX003 (ip), vehicle: Klucel (hydroxypropylcellulose) (HPC)
[13] = dose: 100.0 mg/kg/injection, schedule: Q04DX002 (ip), vehicle: Klucel (hydroxypropylcellulose) (HPC)
[14] = dose: 200.0 mg/kg/injection, schedule: Q04DX002 (ip), vehicle: Klucel (hydroxypropylcellulose) (HPC)
[15] = dose: 400.0 mg/kg/injection, schedule: Q04DX002 (ip), vehicle: Klucel (hydroxypropylcellulose) (HPC)
[16] = dose: 200.0 mg/kg/injection, schedule: Q01DX009 (ip), vehicle: Klucel (hydroxypropylcellulose) (HPC)
[17] = dose: 400.0 mg/kg/injection, schedule: Q01DX009 (ip), vehicle: Klucel (hydroxypropylcellulose) (HPC)

Measured: T/C

Nc1ccc(/C=C/c2ccnc3ccccc23)cc1
inactive: dose: 0.5 mg/kg/injection, schedule: Q01DX015 (ip), vehicle: saline 101 % of control | dose: 1.0 mg/kg/injection, schedule: Q01DX015 (ip), vehicle: saline 101 % of control | dose: 2.0 mg/kg/injection, schedule: Q01DX015 (ip), vehicle: saline 101 % of control | dose: 4.0 mg/kg/injection, schedule: Q01DX015 (ip), vehicle: saline 101 % of control | [1] 95 % of control | [2] 97 % of control | [3] 95 % of control | [4] 105 % of control

C=C(Br)CN(CC)CC
inactive: dose: 12.5 mg/kg/injection, schedule: Q01DX009 (ip), vehicle: Klucel (hydroxypropylcellulose) (HPC) 90 % of control | dose: 12.5 mg/kg/injection, schedule: Q04DX003 (ip), vehicle: Klucel (hydroxypropylcellulose) (HPC) 100 % of control | [5] 91 % of control | dose: 25.0 mg/kg/injection, schedule: Q04DX003 (ip), vehicle: Klucel (hydroxypropylcellulose) (HPC) 107 % of control | dose: 50.0 mg/kg/injection, schedule: Q04DX003 (ip), vehicle: Klucel (hydroxypropylcellulose) (HPC) 96 % of control

COc1cc2c(cc1OC)C1CC(=O)C(CC(C)C)CN1CC2 (stereo unspecified)
inactive: [5] 105 % of control | dose: 50.0 mg/kg/injection, schedule: Q01DX009 (ip), vehicle: Klucel (hydroxypropylcellulose) (HPC) 103 % of control | [6] 117 % of control | [7] 102 % of control | [8] 90 % of control | [9] 89 % of control

CC(C)(C(=O)Oc1ccccc1)C(=O)Oc1ccccc1
inactive: [10] 95 % of control | [7] 100 % of control | [8] 88 % of control

COc1ccc(C)cc1NC(=O)OCCOc1ccc(Br)cc1
inactive: [10] 90 % of control | [7] 97 % of control | [8] 87 % of control

O=c1cc(S(=O)(=O)c2ccccc2)[nH]c(=O)[nH]1
inactive: [11] 97 % of control | [12] 101 % of control

CCOC(=O)CCCc1c(C)[nH]c2ccc(Cl)cc12
inactive: [13] 98 % of control | [14] 102 % of control | [15] 91 % of control

O=C(Nc1ccc2ccccc2c1)c1ccc2c(c1)C(=O)OC2=O
inactive: dose: 100.0 mg/kg/injection, schedule: Q01DX001 (ip), vehicle: carboxymethylcellulose (CMC) 97 % of control and 100 % of control | dose: 100.0 mg/kg/injection, schedule: Q01DX009 (ip), vehicle: carboxymethylcellulose (CMC) 97 % of control and 98 % of control | dose: 100.0 mg/kg/injection, schedule: Q04DX002 (ip), vehicle: carboxymethylcellulose (CMC) 96 % of control and 103 % of control | dose: 100.0 mg/kg/injection, schedule: Q04DX003 (ip), vehicle: carboxymethylcellulose (CMC) 100 % of control and 91 % of control | dose: 200.0 mg/kg/injection, schedule: Q01DX001 (ip), vehicle: carboxymethylcellulose (CMC) 93 % of control and 100 % of control | dose: 200.0 mg/kg/injection, schedule: Q01DX009 (ip), vehicle: carboxymethylcellulose (CMC) 96 % of control and 100 % of control | dose: 200.0 mg/kg/injection, schedule: Q04DX002 (ip), vehicle: carboxymethylcellulose (CMC) 99 % of control and 86 % of control | dose: 200.0 mg/kg/injection, schedule: Q04DX003 (ip), vehicle: carboxymethylcellulose (CMC) 92 % of control and 91 % of control | dose: 400.0 mg/kg/injection, schedule: Q01DX001 (ip), vehicle: carboxymethylcellulose (CMC) 93 % of control and 97 % of control | dose: 400.0 mg/kg/injection, schedule: Q01DX009 (ip), vehicle: carboxymethylcellulose (CMC) 100 % of control and 104 % of control | dose: 400.0 mg/kg/injection, schedule: Q04DX002 (ip), vehicle: carboxymethylcellulose (CMC) 95 % of control and 90 % of control | dose: 400.0 mg/kg/injection, schedule: Q04DX003 (ip), vehicle: carboxymethylcellulose (CMC) 88 % of control and 89 % of control

CN(C)CCCN1CCC2(CCC(CO)CC2)CC1
inactive: [2] 94 % of control | [3] 94 % of control | [4] 102 % of control

CC(=O)[C@H]1CC[C@H]2[C@@H]3C[C@H](C)C4=CC(=O)CC[C@]4(C)[C@@]3(F)[C@@H](O)C[C@]12C
inactive: dose: 12.5 mg/kg/injection, schedule: Q04DX002 (ip), vehicle: Klucel (hydroxypropylcellulose) (HPC) 102 % of control | dose: 25.0 mg/kg/injection, schedule: Q04DX002 (ip), vehicle: Klucel (hydroxypropylcellulose) (HPC) 105 % of control | dose: 50.0 mg/kg/injection, schedule: Q04DX002 (ip), vehicle: Klucel (hydroxypropylcellulose) (HPC) 102 % of control | dose: 100.0 mg/kg/injection, schedule: Q04DX003 (ip), vehicle: steriod suspending solution 96 % of control | dose: 200.0 mg/kg/injection, schedule: Q04DX003 (ip), vehicle: steriod suspending solution 105 % of control | dose: 400.0 mg/kg/injection, schedule: Q04DX003 (ip), vehicle: steriod suspending solution 102 % of control

CC(=O)ONCCc1ccc(S(=O)(=O)F)cc1
inactive: [11] 105 % of control | [12] 96 % of control | dose: 400.0 mg/kg/injection, schedule: Q04DX003 (ip), vehicle: Klucel (hydroxypropylcellulose) (HPC) 98 % of control

O=Cc1cccc(OCc2cccc([N+](=O)[O-])c2)c1
inactive: [6] 98 % of control | [13] 108 % of control | dose: 100.0 mg/kg/injection, schedule: Q04DX002 (ip), vehicle: saline 102 % of control | [16] 102 % of control | [14] 105 % of control | dose: 200.0 mg/kg/injection, schedule: Q04DX002 (ip), vehicle: saline 97 % of control | [17] 95 % of control | [15] 97 % of control | dose: 400.0 mg/kg/injection, schedule: Q04DX002 (ip), vehicle: saline 108 % of control

CCOC(=O)CCCc1ccc(N/N=N/c2nc[nH]c2C(N)=O)cc1
inactive: dose: 25.0 mg/kg/injection, schedule: Q01DX Z (ip), vehicle: carboxymethylcellulose (CMC) 94 % of control | dose: 50.0 mg/kg/injection, schedule: Q01DX Z (ip), vehicle: carboxymethylcellulose (CMC) 88 % of control | dose: 75.0 mg/kg/injection, schedule: Q01DX Z (ip), vehicle: carboxymethylcellulose (CMC) 88 % of control | dose: 100.0 mg/kg/injection, schedule: Q01DX Z (ip), vehicle: carboxymethylcellulose (CMC) 103 % of control | dose: 200.0 mg/kg/injection, schedule: Q01DX Z (ip), vehicle: carboxymethylcellulose (CMC) 88 % of control

CN(C)C(=O)Nc1ccc(Cl)c(Cl)c1
inactive: dose: 100.0 mg/kg/injection, schedule: Q01DX009 (ip), vehicle: saline 94 % of control | dose: 100.0 mg/kg/injection, schedule: Q04DX003 (ip), vehicle: saline 103 % of control | dose: 200.0 mg/kg/injection, schedule: Q01DX009 (ip), vehicle: saline 102 % of control | dose: 200.0 mg/kg/injection, schedule: Q04DX003 (ip), vehicle: saline 102 % of control | dose: 400.0 mg/kg/injection, schedule: Q01DX009 (ip), vehicle: saline 93 % of control | dose: 400.0 mg/kg/injection, schedule: Q04DX003 (ip), vehicle: saline 96 % of control

COc1ccc(Cl)cc1NC(=O)Oc1ccc(C(C)=O)cc1
inactive: dose: 100.0 mg/kg/injection, schedule: Q01DX001 (ip), vehicle: saline with Tween-80 100 % of control | [7] 97 % of control and 104 % of control | dose: 100.0 mg/kg/injection, schedule: Q04DX002 (ip), vehicle: saline with Tween-80 121 % of control | dose: 100.0 mg/kg/injection, schedule: Q04DX003 (ip), vehicle: saline with Tween-80 90 % of control | dose: 200.0 mg/kg/injection, schedule: Q01DX001 (ip), vehicle: saline with Tween-80 100 % of control | [8] 96 % of control | dose: 200.0 mg/kg/injection, schedule: Q04DX002 (ip), vehicle: saline with Tween-80 99 % of control | dose: 200.0 mg/kg/injection, schedule: Q04DX003 (ip), vehicle: saline with Tween-80 87 % of control | dose: 400.0 mg/kg/injection, schedule: Q01DX001 (ip), vehicle: saline with Tween-80 93 % of control | [9] 100 % of control and 86 % of control | dose: 400.0 mg/kg/injection, schedule: Q04DX002 (ip), vehicle: saline with Tween-80 99 % of control | dose: 400.0 mg/kg/injection, schedule: Q04DX003 (ip), vehicle: saline with Tween-80 99 % of control

CCOc1ccn(C)c(=O)n1
inactive: [1] 90 % of control | [2] 95 % of control

CN(C(=O)c1cccc([N+](=O)[O-])c1)C1CCCCC1
inactive: [6] 93 % of control | [16] 100 % of control | [17] 96 % of control
